Experimental data reported in patent publication US20020065219A1, “Water soluble thiazolyl peptide derivatives” (priority 2000, published 2002).
≈ marks a conversion by molar mass, not a printed value. Read-outs that look alike come from different tables or passages of the source.

How the values were obtained:
Assay in all cases: MIC, broth micro dilution assay (NCCLS)
Type in all cases: cell-based
[1] = tested on: Staphylococcus aureus A15090
[2] = tested on: Streptococcus pneumoniae A28272
[3] = tested on: Enterococcus faecalis A20688
[4] = Mueller-Hinton medium, 35° C., 18 hours
[5] = 50% Mueller-Hinton medium and 50% Todd Hewitt medium, 35° C., 18 hours

Row | Structure (SMILES) | MIC (μg/mL) against Staphylococcus aureus A15090 [1] | MIC (μg/mL) against Streptococcus pneumoniae A28272 [2] | MIC (μg/mL) against Enterococcus faecalis A20688 [3] | MIC (μg/mL) against Staphylococcus aureus A15090 [1, 4] | MIC (μg/mL) against Streptococcus pneumoniae A28272 [2, 5] | MIC (μg/mL) against Enterococcus faecalis A20688 [3, 4]
1 | COC(C)=C1NC(=O)C(C(C)O)NC(=O)c2csc(n2)-c2cc(O)c(-c3nc(C(=O)NC(CN4CCC4CO)C(N)=O)cs3)nc2-c2csc(n2)C2COC(=O)c3c4c5c(cccc5n3O)COC(=O)C(OC3CC(C)(O)C(N(C)C)C(C)O3)C(OC4)C(NC(=O)c3csc1n3)c1nc(cs1)C(=O)N2 (stereo not drawn) [Example 84] | 0.5 µg/mL (≈ 0.328 µM) | 0.125 µg/mL (≈ 0.082 µM) | 0.25 µg/mL (≈ 0.164 µM) |  |  | 
2 | COC(C)=C1NC(=O)C(C(C)O)NC(=O)c2csc(n2)-c2cc(O)c(-c3nc(C(=O)NC(CN4CCN(Cc5nc(OC)cc(OC)n5)CC4)C(N)=O)cs3)nc2-c2csc(n2)C2COC(=O)c3c4c5c(cccc5n3O)COC(=O)C(OC3CC(C)(O)C(N(C)C)C(C)O3)C(OC4)C(NC(=O)c3csc1n3)c1nc(cs1)C(=O)N2 (stereo not drawn) [Example 77] | 0.125 µg/mL (≈ 0.0746 µM) | 0.015 µg/mL (≈ 0.00895 µM) | 0.5 µg/mL (≈ 0.298 µM) |  |  | 
3 | CO/C(C)=C1/NC(=O)C(C(C)O)NC(=O)c2csc(n2)-c2cc(O)c(-c3nc(C(=O)NC(CN(CCCN(C)C)CCCN(C)C)C(N)=O)cs3)nc2-c2csc(n2)C2COC(=O)c3c4c5c(cccc5n3O)COC(=O)C(O[C@H]3C[C@](C)(O)[C@H](N(C)C)[C@H](C)O3)C(OC4)C(NC(=O)c3csc1n3)c1nc(cs1)C(=O)N2 (stereo partly drawn) [Example 27] |  |  |  | 4.0 µg/mL (≈ 2.46 µM) | 0.0005 µg/mL (≈ 0.000308 µM) | 2.0 µg/mL (≈ 1.23 µM)
4 | COC(C)=C1NC(=O)C(C(C)O)NC(=O)c2csc(n2)-c2cc(O)c(-c3nc(C(=O)NC(CN4CCN(Cc5cc(OC)c(OC)c(OC)c5)CC4)C(N)=O)cs3)nc2-c2csc(n2)C2COC(=O)c3c4c5c(cccc5n3O)COC(=O)C(OC3CC(C)(O)C(N(C)C)C(C)O3)C(OC4)C(NC(=O)c3csc1n3)c1nc(cs1)C(=O)N2 (stereo not drawn) [Example 71] | 1.0 µg/mL (≈ 0.587 µM) | 0.5 µg/mL (≈ 0.293 µM) | 2.0 µg/mL (≈ 1.17 µM) |  |  | 
5 | CO/C(C)=C1/NC(=O)C(C(C)O)NC(=O)c2csc(n2)-c2cc(O)c(-c3nc(C(=O)NC(CN4CCC[C@H]4CN4CCCC4)C(N)=O)cs3)nc2-c2csc(n2)C2COC(=O)c3c4c5c(cccc5n3O)COC(=O)C(O[C@H]3C[C@](C)(O)[C@H](N(C)C)[C@H](C)O3)C(OC4)C(NC(=O)c3csc1n3)c1nc(cs1)C(=O)N2 (stereo partly drawn) [Example 65] | 0.03 µg/mL (≈ 0.0188 µM) | 2.0 µg/mL (≈ 1.26 µM) | 1.0 µg/mL (≈ 0.628 µM) |  |  | 
6 | COC(C)=C1NC(=O)C(C(C)O)NC(=O)c2csc(n2)-c2cc(O)c(-c3nc(C(=O)NC(CN(C)CCC(=O)Nc4ccncc4)C(N)=O)cs3)nc2-c2csc(n2)C2COC(=O)c3c4c5c(cccc5n3O)COC(=O)C(OC3CC(C)(O)C(N(C)C)C(C)O3)C(OC4)C(NC(=O)c3csc1n3)c1nc(cs1)C(=O)N2 (stereo not drawn) [Example 82] |  |  |  | 0.5 µg/mL (≈ 0.309 µM) | 0.03 µg/mL (≈ 0.0186 µM) | 0.5 µg/mL (≈ 0.309 µM)
7 | CO/C(C)=C1/NC(=O)C(C(C)O)NC(=O)c2csc(n2)-c2cc(O)c(-c3nc(C(=O)NC(CSCCS(=O)(=O)O)C(N)=O)cs3)nc2-c2csc(n2)C2COC(=O)c3c4c5c(cccc5n3O)COC(=O)C(O[C@H]3C[C@](C)(O)[C@H](N(C)C)[C@H](C)O3)C(OC4)C(NC(=O)c3csc1n3)c1nc(cs1)C(=O)N2 (stereo partly drawn) [Example 46] |  |  |  | 4.0 µg/mL (≈ 2.53 µM) | 0.06 µg/mL (≈ 0.038 µM) | 128 µg/mL (≈ 81 µM)
8 | COC(C)=C1NC(=O)C(C(C)O)NC(=O)c2csc(n2)-c2cc(O)c(-c3nc(C(=O)NC(CN4CCCC4COc4cccnc4)C(N)=O)cs3)nc2-c2csc(n2)C2COC(=O)c3c4c5c(cccc5n3O)COC(=O)C(OC3CC(C)(O)C(N(C)C)C(C)O3)C(OC4)C(NC(=O)c3csc1n3)c1nc(cs1)C(=O)N2 (stereo not drawn) [Example 79] | 0.06 µg/mL (≈ 0.0371 µM) | 0.001 µg/mL (≈ 0.000619 µM) | 0.125 µg/mL (≈ 0.0774 µM) |  |  | 
9 | CO/C(C)=C1/NC(=O)C(C(C)O)NC(=O)c2csc(n2)-c2cc(O)c(-c3nc(C(=O)NC(CN4CCN(c5ccncc5)CC4)C(N)=O)cs3)nc2-c2csc(n2)C2COC(=O)c3c4c5c(cccc5n3O)COC(=O)C(O[C@H]3C[C@](C)(O)[C@H](N(C)C)[C@H](C)O3)C(OC4)C(NC(=O)c3csc1n3)c1nc(cs1)C(=O)N2 (stereo partly drawn) [Example 52] | 0.5 µg/mL (≈ 0.312 µM) | 0.5 µg/mL (≈ 0.312 µM) | 1.0 µg/mL (≈ 0.625 µM) |  |  | 
10 | COC(C)=C1NC(=O)C(C(C)O)NC(=O)c2csc(n2)-c2cc(O)c(-c3nc(C(=O)NC(CN4CCCC4CO)C(N)=O)cs3)nc2-c2csc(n2)C2COC(=O)c3c4c5c(cccc5n3O)COC(=O)C(OC3CC(C)(O)C(N(C)C)C(C)O3)C(OC4)C(NC(=O)c3csc1n3)c1nc(cs1)C(=O)N2 (stereo not drawn) [Example 78] |  |  |  | 0.03 µg/mL (≈ 0.0195 µM) | 0.007 µg/mL (≈ 0.00455 µM) | 0.125 µg/mL (≈ 0.0812 µM)
11 | CO/C(C)=C1/NC(=O)C(C(C)O)NC(=O)c2csc(n2)-c2cc(O)c(-c3nc(C(=O)NC(CN(C)CC(O)C(O)C(O)C(O)CO)C(N)=O)cs3)nc2-c2csc(n2)C2COC(=O)c3c4c5c(cccc5n3O)COC(=O)C(O[C@H]3C[C@](C)(O)[C@H](N(C)C)[C@H](C)O3)C(OC4)C(NC(=O)c3csc1n3)c1nc(cs1)C(=O)N2 (stereo partly drawn) [Example 31] |  |  |  | 0.125 µg/mL (≈ 0.0766 µM) | 0.125 µg/mL (≈ 0.0766 µM) | 1.0 µg/mL (≈ 0.612 µM)
12 | COC[C@@H]1CCCN1CC(NC(=O)c1csc(-c2nc3c(cc2O)-c2nc(cs2)C(=O)NC(C(C)O)C(=O)N/C(=C(\C)OC)c2nc(cs2)C(=O)NC2c4nc(cs4)C(=O)NC(COC(=O)c4c5c6c(cccc6n4O)COC(=O)C(O[C@H]4C[C@](C)(O)[C@H](N(C)C)[C@H](C)O4)C2OC5)c2nc-3cs2)n1)C(N)=O (stereo partly drawn) [Example 63] |  |  |  | 0.125 µg/mL (≈ 0.0805 µM) | 0.03 µg/mL (≈ 0.0193 µM) | 0.25 µg/mL (≈ 0.161 µM)
13 | CO/C(C)=C1/NC(=O)C(C(C)O)NC(=O)c2csc(n2)-c2cc(O)c(-c3nc(C(=O)NC(CN4C[C@H](C)NC[C@@H]4C)C(N)=O)cs3)nc2-c2csc(n2)C2COC(=O)c3c4c5c(cccc5n3O)COC(=O)C(O[C@H]3C[C@](C)(O)[C@H](N(C)C)[C@H](C)O3)C(OC4)C(NC(=O)c3csc1n3)c1nc(cs1)C(=O)N2 (stereo partly drawn) [Example 59] |  |  |  | 1.0 µg/mL (≈ 0.644 µM) | 0.25 µg/mL (≈ 0.161 µM) | 2.0 µg/mL (≈ 1.29 µM)
